Results from patent US6638974B1, “Ascorbyl esters for the treatment of cancer” (University of South Florida, priority 1999, dated 2003).

What was measured:
PANC-1 cells [1] = assay: Apoptosis by in situ TUNEL assay, PANC-1; format: cell-based, human; details: 150 μM, 24 hours
Description: Detection of Apoptosis By In Situ Hybridization Using TUNEL Reaction: Apoptosis was determined by TdT-mediated dUTP nick end labeling (TUNEL) using an in situ cell death detection kit (Boehringer Mannheim, Indianapolis, Ind.). Asc-S treated and untreated PANC-1 cells were trypsinized and cytospin preparations were obtained. Cells were fixed with paraformaldehyde (4% in PBS, pH 7.4). After a rinse in PBS, the slides were incubated in permeabilization solution. Slides were cross-reacted with TUNEL reaction mixture for 60 minutes at 37° C. in a humidified chamber. Slides were thoroughly rinsed and reacted with alkaline phosphatase substrate solution for five to ten minutes (Vector Laboratories, Burlington, Mass.). The slides were analyzed under light microscope. These experiments were performed in duplicate.

c-Src = c-Src expression by Western immunoblot, T98G; format: cell-based, human; details: 100 μM, 24 h
Description: The Src oncogene product was the first to be identified as tyrosine kinase. Today the “Src-family” of non-receptor tyrosine kinases is known to be represented in every cell type and signaling system. […] This observation is further corroborated with the data on the dose and time dependent inhibition of IGF1-R described herein.
The T98G cells are exponentially grown in MEM with 10 nM human recombinant IGF-1 (Bachem California, Torrance, Calif.) or MEM with 10% FBS. The cells were disrupted in cold lysis buffer (10 μM terra sodium pyrophosphate, 20 mM HEPES, 1% Triton X-100, 100 mM NaCl, 2 ug/ml aprotinin, 2 μg/ml leupeptin and 100 μg/ml of PMSF). The crude lysates were centrifuged and protein concentration was determined by using Pierce BCA Protein Assay kit. […] Rabbit anti-human polyclonal primary antibodies to c-Src (pp60^Src (aa403-421) (Upstate Biotechnology, Lake Placid, N.Y.) were incubated for one hour at room temperature in TBST and 1% nonfat milk. The blots were then washed and incubated with anti-rabbit horseradish peroxidase conjugated secondary antibody (Oncogene Science, Inc. Uniondale, N.Y.). Antigen bound to nitrocellulose membrane was detected with the ECL system (Amersham Corp., Arlington Heights, Ill.). FIG. 9A was a positive control for c-Src from A431 cell lysate, FIGS. 9B and C were untreated and 100 μM […] treated T98G cell lysates respectively.

Ras (p21) = Ras (p21) expression by Western blot, PANC-1; format: cell-based, human; details: 150 μM, 24 hours
Description: PANC-1 cells were cultured for 24 hours in MEM+10% FBS and treated with 150 μM Asc-S for 24 hours, Asc-S treated and untreated (control). PANC-1 cells were analyzed by Western immunoblotting as follows: Cell lysates of treated and non-treated PANC-1 cells were obtained. The lysates were sonicated, centrifuged and protein concentration was determined with Pierce BCA protein kit (Pierce Laboratories). A 20 μg of protein was loaded and resolved at 4% to 15% polyacrylamide gradient gel by sodium dodecyl sulfate-polyacrylamide gel electrophoresis (SDS-PAGE) and electroblotted onto a nitrocellulose membrane […]. The membrane was immunoblotted with mouse anti-human IGF1-R antibodies to cross-react the 85 kDa β-subunit of the IGF1-R (Pharmingen, San Diego, Calif.) followed by anti-mouse horseradish peroxidase conjugated secondary antibody (ECL, Amersham Corporation, Arlington Heights, Ill.). Antigen bound to nitrocellulose membrane was detected with the ECL system (Amersham Corporation, Arlington Heights, Ill.). P6 cells (3T3 fibroblast cells, transfected with a CVN plasmid constituitively expressing human IGF1-R) were used as the positive control.
Effects of Asc-S on Ras expression in PANC-1 cells: The activation of the IGF1-R induces a cascade of phosphorylations including that of GDP to GTP with activation of the Ras pathway. […]

PANC-1 cells [2] = assay: MTT cell growth and viability assay, PANC-1; format: cell-based, human; details: 50-175 μM Asc-S, 24 hours, MEM+10% FBS or serum free MEM+15 nM IGF-1
Description: PANC-1 Cell Culture: The human pancreatic ductal adenocarcinoma cell line PANC-1 was obtained from the American Type Culture Collection (Rockville, Md.). PANC-1 cells were cultured for 24 hours in Minimum Essential Medium (MEM) (Whitaker M A Bioproducts, Walkersville, Md.) supplemented with 10% fetal bovine serum (FBS) (Hyclone Laboratories, Logan, Utah) or serum free MEM+15 nM human recombinant IGF-1, penicillin (50 U/ml), streptomycin (50 μg/ml) and 1.0 mM L-glutamine.
Cell Growth and Vitality: The effect of Asc-S on PANC-1 and PC-1 cell growth and viability was evaluated by 3-(4,5-dimethylthiazol-2yl)-2,5-diphenyl-tetrazoliumbromide (MTT) (Sigma Chemical Co., St. Louis, Md.) assay and the details of the procedure are as described earlier (Naidu et al., 1993a) PANC-1 cells were seeded at 2.5×10^4 viable cells well in 0.1 ml MEM supplemented with 10% FBS or serum free MEM with 15 nM human recombinant IGF-1 in 96 multiwell tissue culture plates. The following day when the cells were nearly confluent, the medium was replaced with fresh medium and 50, 75, 100, 125, 150, 175 and 200 μM Asc-S were added and incubated in a CO2 incubator at 37° C. for 24 hours with respective untreated controls.

rat astrocyte cells = assay: Apoptosis by in situ TUNEL assay, rat astrocytes in primary culture; format: cell-based; details: 100 μM, 24 hours, vs untreated astrocytes
Description: (§1) Apoptosis by in situ TUNNEL assay: This experiment was designed to test the hypothesis that down regulation of IGF1-R facilitates apoptosis in T98G cells. […] In addition, to test whether Asc-S treatment induces apoptosis in normal cells, rat astrocyte cells in primary culture were treated with 100 μM Asc-S for 24 hours. […] The increased apoptosis in the Asc-S treated T98G cells is due to down regulation of IGF1-R.
(§2) In FIG. 10, apoptosis was evaluated by in situ immunohistochemical detection and quantification at a single cell level.

T98G cells = assay: Apoptosis by in situ TUNEL assay, T98G; format: cell-based, human; details: 100 μM, 24 hours
Description: as §1, §2

SMILES: CCCCCCCCCCCCCCCCCC(=O)OC[C@H](O)[C@H]1OC(=O)C(O)=C1O [Asc-S, Ascorbyl stearate]
- apoptosis (in situ TUNEL), PANC-1 (PANC-1 cells [1]): significant increase in apoptosis
- c-Src expression, T98G cells (c-Src): did not affect
- Ras (p21) expression, PANC-1 (Ras (p21)): significant inhibition
- PANC-1 cell proliferation (MTT assay) (PANC-1 cells [2]): inhibited cell proliferation in a dose dependent manner
- apoptotic rate (in situ TUNEL), rat astrocytes (rat astrocyte cells): did not increase the apoptotic rate
- apoptosis (in situ TUNEL), T98G cells (T98G cells): significant increase in apoptosis
